Each block holds one compound with its values, some of them ahead of it.
System: LG0703-F948-PDC complex spheroid viability
Test: Anticancer human tumor LG0703-F948-PDC patient-derived lung adenocarcinoma cell line growth inhibition [RAS]
Settings: for IC50: curve of first compound; for viability, T/C: stronger effect = lower value
Outline: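 Agents were tested in combination matrices in half-log decrements from a top concentration at or near clinical Cmax (10 microM if undetermined). Targets were multi-cell spheroids of tumour lines plus HUVEC and MSC stromal cells.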

[1] = second compound 0.000949 µM, first compound 0.00316 µM
[2] = second compound 0.000949 µM, first compound 0.01 µM
[3] = second compound 0.000949 µM, first compound 0.0316 µM
[4] = second compound 0.000949 µM, first compound 0.1 µM
[5] = second compound 0.000949 µM, first compound 0.316 µM
[6] = second compound 0.000949 µM, first compound 1 µM
[7] = second compound 0.003 µM, first compound 0.00316 µM
[8] = second compound 0.003 µM, first compound 0.01 µM
[9] = second compound 0.003 µM, first compound 0.0316 µM
[10] = second compound 0.003 µM, first compound 0.1 µM
[11] = second compound 0.003 µM, first compound 0.316 µM
[12] = second compound 0.003 µM, first compound 1 µM
[13] = second compound 0.00949 µM, first compound 0.00316 µM
[14] = second compound 0.00949 µM, first compound 0.01 µM
[15] = second compound 0.00949 µM, first compound 0.0316 µM
[16] = second compound 0.00949 µM, first compound 0.1 µM
[17] = second compound 0.00949 µM, first compound 0.316 µM
[18] = second compound 0.00949 µM, first compound 1 µM
[19] = second compound 0.03 µM, first compound 0.00316 µM
[20] = second compound 0.03 µM, first compound 0.01 µM
[21] = second compound 0.03 µM, first compound 0.0316 µM
[22] = second compound 0.03 µM, first compound 0.1 µM
[23] = second compound 0.03 µM, first compound 0.316 µM
[24] = second compound 0.03 µM, first compound 1 µM
[25] = second compound 0.0949 µM, first compound 0.00316 µM
[26] = second compound 0.0949 µM, first compound 0.01 µM
[27] = second compound 0.0949 µM, first compound 0.0316 µM
[28] = second compound 0.0949 µM, first compound 0.1 µM
[29] = second compound 0.0949 µM, first compound 0.316 µM
[30] = second compound 0.0949 µM, first compound 1 µM
[31] = second compound 0.3 µM, first compound 0.00316 µM
[32] = second compound 0.3 µM, first compound 0.01 µM
[33] = second compound 0.3 µM, first compound 0.0316 µM
[34] = second compound 0.3 µM, first compound 0.1 µM
[35] = second compound 0.3 µM, first compound 0.316 µM
[36] = second compound 0.3 µM, first compound 1 µM
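Also: spheroids exposed to agents for 7 days.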
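For viability, T/C in this document: 100% = DMSO vehicle wells.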

IC50 (second compound 0.000949 µM): 13.1 nM
IC50 (second compound 0.003 µM): 13.9 nM
IC50 (second compound 0.00949 µM): 12.1 nM
IC50 (second compound 0.03 µM): 9.92 nM
IC50 (second compound 0.0949 µM): 4.89 nM
IC50 (second compound 0.3 µM): < 3.16 nM
Compound: C=CC(=O)Nc1cc(Nc2nccc(-c3cn(C)c4ccccc34)n2)c(OC)cc1N(C)CCN(C)C + CCn1c(-c2cccnc2C(C)OC)c2c3cc(ccc31)N1CCOC(CC(NC(=O)C(C(C)C)N(C)C(=O)C3(F)CCN(C(=O)C#CC(C)(C)N(C)C)CC3)C(=O)N3CCCC(N3)C(=O)OCC(C)(C)C2)C1
viability, T/C [1]: 78.5%
viability, T/C [2]: 56.9%
viability, T/C [3]: 27.3%
viability, T/C [4]: 20.5%
viability, T/C [5]: 19.1%
viability, T/C [6]: 13.9%
viability, T/C [7]: 88.6%
viability, T/C [8]: 57.5%
viability, T/C [9]: 31.1%
viability, T/C [10]: 21.5%
viability, T/C [11]: 16.2%
viability, T/C [12]: 15.6%
viability, T/C [13]: 83.4%
viability, T/C [14]: 55.6%
viability, T/C [15]: 22.3%
viability, T/C [16]: 18.5%
viability, T/C [17]: 19.7%
viability, T/C [18]: 15.2%
viability, T/C [19]: 82.6%
viability, T/C [20]: 49.6%
viability, T/C [21]: 26.6%
viability, T/C [22]: 15.5%
viability, T/C [23]: 17.4%
viability, T/C [24]: 14.4%
viability, T/C [25]: 60.2%
viability, T/C [26]: 33.1%
viability, T/C [27]: 21.2%
viability, T/C [28]: 14.9%
viability, T/C [29]: 13.9%
viability, T/C [30]: 12.1%
viability, T/C [31]: 29.1%
viability, T/C [32]: 17.5%
viability, T/C [33]: 9.89%
viability, T/C [34]: 9.16%
viability, T/C [35]: 9.3%
viability, T/C [36]: 13.5%

IC50 (second compound 0.000949 µM): 5.17 nM
IC50 (second compound 0.003 µM): < 3.16 nM
IC50 (second compound 0.00949 µM): < 3.16 nM
IC50 (second compound 0.03 µM): < 3.16 nM
IC50 (second compound 0.0949 µM): < 3.16 nM
IC50 (second compound 0.3 µM): < 3.16 nM
Compound: C=CC(=O)Nc1cc(Nc2nccc(-c3cn(C)c4ccccc34)n2)c(OC)cc1N(C)CCN(C)C + CCn1c(-c2cc(N3CCN(C)CC3)cnc2C(C)OC)c2c3cc(ccc31)-c1csc(n1)CC(NC(=O)C1CC1C)C(=O)N1CCCC(N1)C(=O)OCC(C)(C)C2
viability, T/C [1]: 62.6%
viability, T/C [2]: 33%
viability, T/C [3]: 17.7%
viability, T/C [4]: 12.9%
viability, T/C [5]: 11.6%
viability, T/C [6]: 9.33%
viability, T/C [7]: 30.5%
viability, T/C [8]: 18.5%
viability, T/C [9]: 12.6%
viability, T/C [10]: 10.9%
viability, T/C [11]: 12.3%
viability, T/C [12]: 8.1%
viability, T/C [13]: 24%
viability, T/C [14]: 14.2%
viability, T/C [15]: 12.6%
viability, T/C [16]: 9.67%
viability, T/C [17]: 8.83%
viability, T/C [18]: 9.91%
viability, T/C [19]: 14.1%
viability, T/C [20]: 13.1%
viability, T/C [21]: 8.75%
viability, T/C [22]: 7.03%
viability, T/C [23]: 6.1%
viability, T/C [24]: 4.67%
viability, T/C [25]: 9.07%
viability, T/C [26]: 7.77%
viability, T/C [27]: 5.22%
viability, T/C [28]: 5.15%
viability, T/C [29]: 5.21%
viability, T/C [30]: 3.75%
viability, T/C [31]: 7.47%
viability, T/C [32]: 9.59%
viability, T/C [33]: 5.92%
viability, T/C [34]: 5.32%
viability, T/C [35]: 4.11%
viability, T/C [36]: 2.62%

IC50 (second compound 0.000949 µM): 6.69 nM
IC50 (second compound 0.003 µM): < 3.16 nM
IC50 (second compound 0.00949 µM): < 3.16 nM
IC50 (second compound 0.03 µM): < 3.16 nM
IC50 (second compound 0.0949 µM): < 3.16 nM
IC50 (second compound 0.3 µM): < 3.16 nM
Compound: Nc1ccn(C2OC(CO)C(O)C2(F)F)c(=O)n1 (stereo not drawn) + CCn1c(-c2cc(N3CCN(C)CC3)cnc2C(C)OC)c2c3cc(ccc31)-c1csc(n1)CC(NC(=O)C1CC1C)C(=O)N1CCCC(N1)C(=O)OCC(C)(C)C2
viability, T/C [1]: 65.9%
viability, T/C [2]: 42.5%
viability, T/C [3]: 33.1%
viability, T/C [4]: 40.5%
viability, T/C [5]: 39.5%
viability, T/C [6]: 36.2%
viability, T/C [7]: 46.4%
viability, T/C [8]: 31.9%
viability, T/C [9]: 34.1%
viability, T/C [10]: 28.7%
viability, T/C [11]: 29.6%
viability, T/C [12]: 32.8%
viability, T/C [13]: 22.8%
viability, T/C [14]: 18.3%
viability, T/C [15]: 17.4%
viability, T/C [16]: 13.7%
viability, T/C [17]: 19.2%
viability, T/C [18]: 18.3%
viability, T/C [19]: 10.1%
viability, T/C [20]: 11.4%
viability, T/C [21]: 15.6%
viability, T/C [22]: 14.2%
viability, T/C [23]: 14.9%
viability, T/C [24]: 10.5%
viability, T/C [25]: 12.6%
viability, T/C [26]: 8.4%
viability, T/C [27]: 9.27%
viability, T/C [28]: 9.86%
viability, T/C [29]: 8.62%
viability, T/C [30]: 8.16%
viability, T/C [31]: 10.5%
viability, T/C [32]: 7.77%
viability, T/C [33]: 11%
viability, T/C [34]: 6.54%
viability, T/C [35]: 6.46%
viability, T/C [36]: 5.98%

IC50 (second compound 0.000949 µM): 1.53 nM
IC50 (second compound 0.003 µM): 0.429 nM
IC50 (second compound 0.00949 µM): < 0.316 nM
IC50 (second compound 0.03 µM): < 0.316 nM
IC50 (second compound 0.0949 µM): < 0.316 nM
IC50 (second compound 0.3 µM): < 0.316 nM
Compound: CC(C)n1nc(-c2ccc3oc(N)nc3c2)c2c(N)ncnc21 + CCn1c(-c2cc(N3CCN(C)CC3)cnc2C(C)OC)c2c3cc(ccc31)-c1csc(n1)CC(NC(=O)C1CC1C)C(=O)N1CCCC(N1)C(=O)OCC(C)(C)C2
viability, T/C (second compound 0.000949 µM, first compound 0.000316 µM): 66.8%
viability, T/C (second compound 0.000949 µM, first compound 0.001 µM): 56.5%
viability, T/C [1]: 38.5%
viability, T/C [2]: 30.5%
viability, T/C [3]: 12.7%
viability, T/C [4]: 5.51%
viability, T/C (second compound 0.003 µM, first compound 0.000316 µM): 55.5%
viability, T/C (second compound 0.003 µM, first compound 0.001 µM): 34.8%
viability, T/C [7]: 29.7%
viability, T/C [8]: 13.1%
viability, T/C [9]: 8.23%
viability, T/C [10]: 3.1%
viability, T/C (second compound 0.00949 µM, first compound 0.000316 µM): 31.1%
viability, T/C (second compound 0.00949 µM, first compound 0.001 µM): 20.7%
viability, T/C [13]: 12.6%
viability, T/C [14]: 6.99%
viability, T/C [15]: 4.36%
viability, T/C [16]: 2.06%
viability, T/C (second compound 0.03 µM, first compound 0.000316 µM): 12.7%
viability, T/C (second compound 0.03 µM, first compound 0.001 µM): 13.1%
viability, T/C [19]: 6.11%
viability, T/C [20]: 5.4%
viability, T/C [21]: 2.59%
viability, T/C [22]: 1.58%
viability, T/C (second compound 0.0949 µM, first compound 0.000316 µM): 12.9%
viability, T/C (second compound 0.0949 µM, first compound 0.001 µM): 8.35%
viability, T/C [25]: 6.05%
viability, T/C [26]: 3.05%
viability, T/C [27]: 1.82%
viability, T/C [28]: 1.05%
viability, T/C (second compound 0.3 µM, first compound 0.000316 µM): 10.7%
viability, T/C (second compound 0.3 µM, first compound 0.001 µM): 7.72%
viability, T/C [31]: 4.76%
viability, T/C [32]: 3.02%
viability, T/C [33]: 1.64%
viability, T/C [34]: 0.76%

Reference: PubChem BioAssay AID2060890 (Molecular Pharmacology Branch, DTP, NCI, 2025)
